Measurements taken from patent publication US7091351B2, “Vanadium compounds for treating cancer” (Parker Hughes Institute, priority 1998, dated 2006).

How the values were obtained:
Format in all cases: cell-based, human
[1] = test system: Tera-2 testicular cancer cells; assay: MTT cytotoxicity assay of vanadocenes, TERA-2 cells; settings: 24 h, 1.9-250 μM
Experimental: (§1) Human testicular cancer cell lines, Tera-2 (embryonal carcinoma) and Ntera-2 (pluripotent embryonal carcinoma) were obtained from the American Type Culture Collection (ATCC) (Rockeville, Md.) and propagated in T-25, T-75, or T-150 cm^2 tissue culture flasks (Corning Corp., Corning, N.Y.) in McCoy's 5A medium and Dulbecco's modified Eagle's medium respectively. Both media were supplemented with 10% fetal calf serum (FCS), 4 mM glutamine, 100 U/ml penicillin G, and […] streptomycin sulfate. All tissue culture reagents were obtained from Life Technologies Inc. (GIBCO-BRL), Gaithersburg, Md. Cell lines were cultivated for a minimum of two passages after thawing prior to experimentation. Other cell lines that were used in this study were the human B-lineage acute lymphoblastic leukemia (ALL) cell line NALM-6. Uckun, F. M., Evans, W. E., Forsyth, C. J., Waddick, K. G., Tuel-Ahlgren, L., Chelstrom, L. M., Burkhardt, A., Bolen, J., Myers, D. E. Biotherapy of B-cell precursor leukemia by targeting genistein to CD19-associated tyrosine kinase. Science (Washington DC) 267:886–91, 1995; T-lineage ALL cell line MOLT-3, Waurzyniak, B., Shneider, E. A., Tumer, N., Yanishevski, Y., Gunther, R., Chelstrom, L., Wendorf, H., Myers, D. E., Irvin, J. D., Messinger, Y., Ek, O., Zeren, T., Chandan-Langlie, M., Evans, W. E., Uckun, F. M. In vivo toxicity, pharmacokinetics, and antileukemic activity of TXU (anti-CD7)-pokeweed antiviral protein immunotoxin. Clinical Cancer Research 3:881–890, 1997; AML cell line HL-60, Perentesis, J. P., Waddick, K. G., Bendel, A. E., Shao, Y., Warman, B. E., Chandan-Langlie, M., and Uckun, F. M. Induction of apoptosis in multi-drug resistant andradiation-resistant acute myeloid leukemia cells by a recombinant fusion toxin directed against the granulocyte macrophage colony stimulating factor receptor. Clin. Cancer Res. 3:347–355, 1997; breast cancer cell lines MDA-MB-231 and BT-20, Uckun, F. M., Narla, R. K., Jun, X., Zeren, T., Venkatachalam, T., Waddick, K. G., Rostostev, A., Myers, D. E. Cytotoxic activity of EGF-genstein against breast cancer cells. Clin. Cancer Res. 4:901–912, 1998; glioblastoma cell lines U87 and U373, Narla, R. K., Liu, X., Myers, D. E., and Uckun, F. M. 4-(3′-Bromo-4′hydroxylphenyl)-amino-6,7-dimethoxyquinazoline (WHI-P154): A novel quinazoline derivative with potent cytotoxic activity against human glioblastoma cells. Clin. Cancer Res. 4:1405–1414, 1998.
(§2) MTT (3-[4,5-dimethyl thiazol-2-yl]-2,5-diphenyltetrazolium bromide)-based colorimetric assays were used for evaluation of the cytotoxicity of vanadocene compounds. Mosmann, T. Rapid colorimetric assay for cellular growth and survival: application to proliferation and cytotoxicity assays. J. Immunol. Methods, 65: 55–63, 1983. Briefly, cells were harvested with 0.125% (w/v) trypsin-0.02% EDTA (GIBCO-BRL) from exponential-phase maintenance cultures and centrifuged (300 g×5 min). After suspension and counting, cells were dispensed within triplicate 96-well tissue culture plates in 100 μl volumes. After 24 h incubation, the culture medium was discarded and replaced with 100 μl of fresh medium containing serial two-fold dilutions of drugs in medium to yield 1.9 μM to 250 μM. All compounds were reconstituted in DMSO to a concentration of 100 mM, and the stock solution was made fresh for each experiment. Control wells consisted of medium containing 0.25% of DMSO alone were used for solvent control. Culture plates were then incubated for 24 h before adding 10 μl of MTT solution (5 mg/ml in PBS) to each well. Wells containing only medium and MTT were used as controls for each plate. The tetrazolium/formazan reaction was allowed to proceed for 4 h at 37° C., and then 100 μl of the solubilization buffer (10% sodium dodecyl sulfate in 0.1% HCl) were added to all wells and mixed thoroughly to dissolve the dark blue formazan crystals. […]

[2] = test system: Ntera-2 testicular cancer cells; assay: MTT cytotoxicity assay of vanadocenes, NTERA-2 cells; settings: 24 h, 1.9-250 μM
Experimental: as §1, §2

[3] = test system: U373 glioblastoma cells; assay: MTT cytotoxicity assay of vanadocenes, U373 cells; settings: 24 h
Experimental: as §1, §2

[4] = test system: NALM-6 B-lineage acute lymphoblastic leukemia cells; assay: MTT cytotoxicity assay of vanadocenes, NALM-6 cells; settings: 24 h
Experimental: as §1
as §2, with “control.” for “control. Culture plates were then incubated for 24 h before adding 10 μl of MTT solution (5 mg/ml in PBS) to each well. Wells containing only medium and MTT were used as controls for each plate. The tetrazolium/formazan reaction was allowed to proceed for 4 h at 37° C., and then 100 μl of the solubilization buffer (10% sodium dodecyl sulfate in 0.1% HCl) were added to all wells and mixed thoroughly to dissolve the dark blue formazan crystals.”

[5] = test system: Tera-2 testicular cancer cells; assay: Flow cytometric TUNEL apoptosis assay, TERA-2 cells; settings: 24 h, TUNEL-positive nuclei
Experimental: (§3) A flow cytometric two-color terminal […] transferase (TdT)-mediated digoxigenin-uridine triphosphate (dUTP) nick-end labeling assay (TUNEL) was employed to detect apoptotic nuclei. Gavrieli, Y., Sherman, Y., Ben-Sasson, S. A. Identification of programmed cell death in situ via specific labeling of nuclear DNA fragmentation. J. Cell Biol., 119: 493–501, 1992. Exponentially growing cells (10^6/ml) were incubated in DMSO alone (0.1%) or treated with 100 μM each of the 16 vanadocenes (VDB, VDC, VMDC, VDI, VDA, VDCN, VDOCN, VDSCN, VDSeCN, VDT, VDCO, VDFe, VD(acac), VDH, VD(dpy), and VD(dtc) in 0.1% DMSO for 24 h. Cells were washed in PBS, fixed in 4% paraformaldehyde in PBS for 15 min on ice. Following two washings in PBS, they were permeabilized with 0.1% Triton X-100 in 0.1% sodium citrate for 2 min on ice, and washed twice in PBS. Labeling of exposed 3′-hydroxyl (3′-OH) ends of fragmented nuclear DNA was performed using TdT and fluorescein isothiocyanate (FITC)-conjugated dUTP according to the manufacturer's recommendations (Boehringer Mannheim, Indianapolis, Ind.). Cells were counterstained with 5 μg/ml PI. Control samples included: (i) untreated cells; (ii) cells incubated with the reaction mixture without the TdT enzyme. Cells were analyzed with a FACS Calibur flow cytometer (Becton Dickinson, Mountain View, Calif.). Relative DNA content (PI) was detected with band-pass filter 585/42, and dUTP incorporation (FITC) was detected with band-pass filter 530/30. Fluorescence was compensated for in the acquisition software using single-label control samples. Data were acquired in listmode, gated to 10,000 events per sample, and analyzed with the use of CELLQuest software program (Becton Dickinson). […] Vanadocene-induced apoptosis is shown by an increase in the number of cells staining with FITC-dUTP. The M1 and M2 gates were used to demarcate non-apoptotic and apoptotic PI-counterstained cell populations, respectively. TUNEL assays were performed using two testicular cell lines Tera-2 and Ntera-2 following exposure to each of the 16 vanadocenes. In other experiments, MC540 binding (as an early marker of apoptosis) and PI permeability (as a marker of advanced stage apoptosis) were simultaneously measured in human cancer cells 24 hours after exposure to vanadocenes, as previously described. Uckun, F. M., Narla, R. K., Jun, X., Zeren, T., Venkatachalam, T., Waddick, K. G., Rostostev, A., Myers, D. E. Cytotoxic activity of EGF-genstein against breast cancer cells. Clin. Cancer Res. 4:901–912, 1998. Vassilev, A., Ozer, Z., Navara, C., Mahajan, S., and Uckun, F. M. Bruton's tyrosine kinase as an inhibitor of the Fas/CD95 death-inducing signaling complex. J. Biol. Chem. 274:1646–56, 1999. Whole cells were analyzed using a FACStar Plus flow cytometer (Becton Dickinson, San Jose, Calif.). All analyses were done using 488 nm excitation from an argon laser. MC540 and PI emissions were split with a 600 nm short pass dichroic mirror and a 575 nm band pass filter was placed in front of one photomultiplier tube to measure MC540 emission and a 635 nm band pass filter was used for PI emission.

[6] = test system: Ntera-2 testicular cancer cells; assay: Flow cytometric TUNEL apoptosis assay, NTERA-2 cells; settings: 24 h, TUNEL-positive nuclei
Experimental: as §3

[7] = test system: HL60 acute myeloid leukemia cells; assay: MC540 binding / PI permeability apoptosis assay, HL-60; settings: 100 μM, 24 hours
Experimental: (§4) A flow cytometric two-color terminal […] transferase (TdT)-mediated digoxigenin-uridine triphosphate (dUTP) nick-end labeling assay (TUNEL) was employed to detect apoptotic nuclei. Gavrieli, Y., Sherman, Y., Ben-Sasson, S. A. Identification of programmed cell death in situ via specific labeling of nuclear DNA fragmentation. J. Cell Biol., 119: 493–501, 1992. […] Cells were analyzed with a FACS Calibur flow cytometer (Becton Dickinson, Mountain View, Calif.). Relative DNA content (PI) was detected with band-pass filter 585/42, and dUTP incorporation (FITC) was detected with band-pass filter 530/30. Fluorescence was compensated for in the acquisition software using single-label control samples. Data were acquired in listmode, gated to 10,000 events per sample, and analyzed with the use of CELLQuest software program (Becton Dickinson). […] In other experiments, MC540 binding (as an early marker of apoptosis) and PI permeability (as a marker of advanced stage apoptosis) were simultaneously measured in human cancer cells 24 hours after exposure to vanadocenes, as previously described. […] Whole cells were analyzed using a FACStar Plus flow cytometer (Becton Dickinson, San Jose, Calif.). […]

[8] = test system: MDA-MB-231 breast cancer cells; assay: MC540 binding / PI permeability apoptosis assay, MDA-MB-231; settings: 100 μM, 24 hours
Experimental: as §4

[9] = test system: BT-20 breast cancer cells; assay: MC540 binding / PI permeability apoptosis assay, BT-20; settings: 100 μM, 24 hours
Experimental: as §4

[10] = test system: U87 glioblastoma cells; assay: MC540 binding / PI permeability apoptosis assay, U87; settings: 100 μM, 24 hours
Experimental: as §4

Row | Structure (SMILES) | IC50 [1] [µM] | IC50 [2] [µM] | IC50 [3] [µM] | IC50 [4] [µM] | % Apoptosis at 100 μM TERA-2 [5] | % Apoptosis at 100 μM NTERA-2 [6] | cells with dual MC540/PI fluorescence (advanced stage apoptosis), HL-60 [7] [%] | total percentage of apoptotic cells (early and advanced stage), HL-60 [7] [%] | cells with dual MC540/PI fluorescence (advanced stage apoptosis), MDA-MB-231 [8] [%] | total percentage of apoptotic cells (early and advanced stage), MDA-MB-231 [8] [%] | cells with dual MC540/PI fluorescence (advanced stage apoptosis), BT-20 [9] [%] | total percentage of apoptotic cells (early and advanced stage), BT-20 [9] [%] | cells with dual MC540/PI fluorescence (advanced stage apoptosis), U87 [10] [%] | total percentage of apoptotic cells (early and advanced stage), U87 [10] [%]
1 | [N-]=[N+]=[N-].[N-]=[N+]=[N-].[V+2].c1cc[cH-]c1.c1cc[cH-]c1 [VDA, VCp2(N3)2] | 70 | 68 | 51 | 16 | 85 (78, 92) % | 85 (78, 93) % | – | – | – | – | – | – | – | –
2 | [Br-].[Br-].[V+2].c1cc[cH-]c1.c1cc[cH-]c1 [VDB, VCp2Br2] | 154 | 70 | 62 | 17 | 84 (83, 86) % | 93 (93, 94) % | – | – | – | – | – | – | – | –
3 | [I-].[I-].[V+2].c1cc[cH-]c1.c1cc[cH-]c1 [VDI, VCp2I2] | 221 | 204 | 5 | 18 | 72 (71, 73) % | 57 (46, 69) % | – | – | – | – | – | – | – | –
4 | C1=C[CH]([V+2][CH]2C=CC=C2)C=C1.[N-]=C=[Se].[N-]=C=[Se] [VDSeCN, VCp2(NCSe)2] | 9 | 22 | 2 | 3 | 78 (75, 80) % | 99.6 ± 0.2 (N = 4) % | 51 | 98 | 67 | 72 | 40 | 61 | 79 | 90
